Results on one molecule are retold here after publication PMC10541198, “Specific quinone reductase 2 inhibitors reduce metabolic burden and reverse Alzheimer’s disease phenotype in mice” (The Journal of Clinical Investigation, 2023).

The experiment concerns GFAP. As to the kind of experiment: IHC of GFAP (astrocyte activation) in 5xFAD brain sections. In kind it is in vivo, mouse. The settings on record: for Figure 9E, IHC signal: individual animals. The source says:
Following the behavioral experiments, we assessed brain pathologies associated with AD present in the 5xFAD mice ([37]). Therefore, 5 days following the last behavioral experiment, and 1 month after the start of YB-537 consumption, mice were sacrificed, and coronal brain sections were used for IHC. Since the CA1 region of the hippocampus is affected during AD pathogenesis ([37]), and this brain region is involved in the behavioral paradigms used here, we acquired images of CA1. This was done with an Olympus IX83 confocal microscope using the same settings, antibodies, and exposures in all mice. Images were analyzed using Imaris (Bitplane; see methods). For each mouse, 3 coronal sections were used per antibody. In each section, the same region of CA1 was acquired, using the same image frame size and resolution, at all possible depths of the section — using a Z-stack of the whole section — to allow measurement of the fluorescent antibody marker volume, which was normalized to the brain volume from which it was taken. First, we measured oxidative stress, as indicated by 4-HNE ([38]) (Abcam, ab48506).
Perfused and fixed brain slices were blocked with 10% normal donkey serum (DNS) and 0.2% triton (Sigma-Aldrich) in PBS. Antibodies, including 4-HNE (AbCam, ab48506), Iba1 (AbCam, ab5076), AT-8 (Thermo, MN1020), Amyloid β (AbCam, ab201060), diluted in PBS with 10% DNS, were incubated at 4°C overnight. Secondary antibodies including donkey-anti-goat Alexa Fluor 568 (AbCam, ab175704), donkey-anti-mouse Cy 5 (Jackson Immuno Research, 715-175-151), and donkey-anti-rabbit DyLight 488 (AbCam, ab98488) all diluted 1:500 in PBS with 1% BSA, were applied to the slices at RT for 2 hours the next day. Slices were mounted onto glass slides using DAPI containing Vectashield (H-1200). Images were taken using a confocal microscope (Olympus IX83). Three slices were used per mouse per antibody. Tiling images of the dorsal CA1 and cortex (Bregma: –1.58mm to –2.30mm) were taken using ×20 objective, acquiring a Z-stack of the whole section. Analysis of the images was done blind by an experimenter unaware of the experimental conditions or details, using Imaris (Bitplane) software. A surface reconstruction module was used to extract the data as volumes of the used markers (4-HNE, phospho-tau, amyloid β, GFAP, and Iba1). Marker volume and intensity were normalized to the corresponding brain volume. The normalized value was averaged for each triplicate and presented here. […]
Brains were then briefly removed and placed in chilled, 4% PFA for 48 h, f oll owe d by immersion in 30% sucrose in 0.1 M PBS for a furt her 48 h. Bra i ns wer e t h e n stored at -80°C, until t he y were sliced into 40µm coronal sections usinga Lei ca CM 1950cryostat. Sli ces were then washed x3 in PBS and bl oc ke d for 1 h at RT using 10% normal donkey serum (DNS) and 0.2% triton (Sigma-Aldrich) in PBS. Antibodies, including 4- HNE (1:500, AbCam, ab48506), Iba1 (1:2,000, AbCam, ab5076), GFAP (Abcam, ab53554), phospho- tau (1:1,000, Thermo, MN1020) and amyloid β (1:1,000, AbCam, ab201060) diluted in PBS with 10% DNS were incubated at 4°C overnight. The next day, the slices were washed x3 times in PBS, and secondary antibodies including donkey anti goat A l e x a Fluor 568 (AbCam, ab175704), donkey anti-mouse Cy 5 (Jackson Immuno Research, 715- 175- 151) and donkey anti-rabbit DyLight 488 (AbCam, ab98488) all diluted 1:500 in PBS with 1% BSA, were applied to the slices at RT for 2 h. Following the incubation, the slices were washed x3 times in PBS, mounted onto gl ass slides, were uniformly covered in DAPI containing Vectashield (H-1200) and coverslips were a dde d. […]

Several values for one entry are separate records, joined by “and”; a condition that tells them apart may be missing. Identical values can stand only once.

Regarding `Cc1ccc(-c2cn3cccc(C)c3n2)cc1S(=O)(=O)N1CCNCC1` [YB-537], the “GFAP normalized volume (individual mice)” value (CA1, 5xFAD 1 month, Females) was 0.0219 and 0.0268 and 0.0382 and 0.0442 and 0.0260 and 0.0233 and 0.0143; the “GFAP normalized volume (individual mice)” value (CA1, 5xFAD 1 month, Males) is 0.0303 and 0.0430 and 0.0365 and 0.0251 and 0.0258 and 0.0274 and 0.0223 and 0.0292 and 0.0263; the “GFAP normalized volume (individual mice)” value (CA1, 5xFAD 1 month, Males + Females) is 0.0303 and 0.0430 and 0.0365 and 0.0251 and 0.0258 and 0.0442 and 0.0260 and 0.0233 and 0.0143 and 0.0219 and 0.0268 and 0.0382 and 0.0274 and 0.0223 and 0.0292 and 0.0263. Further, the GFAP vs vehicle result runs as follows: (CA1, 5xFAD 1 month, Females) “unchanged”; (CA1, 5xFAD 1 month, Males) “unchanged”; (CA1, 5xFAD 1 month, total population) “unchanged”; (cortex, 5xFAD 1 month, females) “not significantly reduced”; (cortex, 5xFAD 1 month, males) “significantly reduced”; (cortex, 5xFAD 1 month, total population) “significantly reduced”. The “Figure 9E, IHC signal” value is 0.0026 and 0.0035 and 0.0044 and 0.0272 and 0.0046 and 0.0194 and 0.0258 and 0.0029 and 0.0033 (Cortex); 0.0259 and 0.0223 and 0.0094 and 0.0129 and 0.0279 and 0.0329 and 0.0343 and 0.0281 and 0.0220 (Hippocampus).
